Data from patent publication US6358885B1, “Substituted phenylheterocyclic herbicides” (Mississippi State University, priority 1992, dated 2002).

Legend:
Assay in all cases: Test G preemergence/postemergence greenhouse plant response rating 0 to 100
[1] = test system: guineagrass; assay type: in vivo, Panicum maximum; details: 0 to 100 scale
Method in brief: (§1)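 Greenhouse pots, one species each; non-phytotoxic solvent vehicle. Read-out: visual injury vs untreated, 13–21 DAT. Dash denotes no result.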

[2] = test system: peanut; assay type: in vivo, Arachis hypoagaea; details: 0 to 100 scale
Method in brief: as §1

[3] = test system: goosegrass; assay type: in vivo, Eleusine indica; details: 0 to 100 scale
Method in brief: as §1

[4] = test system: annual bluegrass; assay type: in vivo, Poa annua; details: 0 to 100 scale
Method in brief: as §1

[5] = test system: sandbur; assay type: in vivo, Cenchrus echinatus; details: 0 to 100 scale
Method in brief: as §1

[6] = test system: common ragweed; assay type: in vivo, Ambrosia elatior; details: 0 to 100 scale
Method in brief: as §1

[7] = test system: purple nutsedge; assay type: in vivo, Cyperus rotundus; details: Rate 125 g/ha, 0 to 100 scale
Method in brief: as §1

[8] = test system: smooth crabgrass; assay type: in vivo, Digitaria ischaemum; details: 0 to 100 scale
Method in brief: as §1

[9] = test system: common purslane; assay type: in vivo, Portulaca oleracea; details: 0 to 100 scale
Method in brief: as §1

[10] = test system: broadleaf signalgrass; assay type: in vivo, Brachiaria plantaginea; details: 0 to 100 scale
Method in brief: as §1

[11] = test system: yellow nutsedge; assay type: in vivo, Cyperus esculentus; details: Rate 125 g/ha, 0 to 100 scale
Method in brief: as §1

[12] = test system: itchgrass; assay type: in vivo, Rottboellia exaltata; details: 0 to 100 scale
Method in brief: as §1

[13] = test system: johnsongrass; assay type: in vivo, Sorghum halepense; details: 0 to 100 scale
Method in brief: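 Pre- and postemergence treatments used compound in non-phytotoxic solvent on potted greenhouse plants grown from seed, rhizome or plant part. Postemergence plants were at the 2–4 leaf stage; damage was assessed by eye versus untreated pots after 13–21 days.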

[14] = test system: dallisgrass; assay type: in vivo, Paspalum dilatatum; details: 0 to 100 scale
Method in brief: as §1

[15] = test system: alfalfa; assay type: in vivo, Medicago ativa; details: 0 to 100 scale
Method in brief: as §1

[16] = test system: pitted morningglory; assay type: in vivo, Ipomoea lacunosa; details: 0 to 100 scale
Method in brief: as §1

COc1cc(-c2nn3c(c2Cl)CCCC3)c(F)cc1Cl [Compound 29]
Plant response rating, Guineagrass ([1]; POSTEMERGENCE, Rate 125 g/ha): 0 | Plant response rating, Guineagrass ([1]; POSTEMERGENCE, Rate 250 g/ha): 0 | Plant response rating, Guineagrass ([1]; PREEMERGENCE, Rate 125 g/ha): 0 | Plant response rating, Guineagrass ([1]; PREEMERGENCE, Rate 250 g/ha): 100 | Plant response rating, Peanuts ([2]; POSTEMERGENCE, Rate 125 g/ha): 0 | Plant response rating, Peanuts ([2]; POSTEMERGENCE, Rate 250 g/ha): 0 | Plant response rating, Peanuts ([2]; PREEMERGENCE, Rate 125 g/ha): 0 | Plant response rating, Peanuts ([2]; PREEMERGENCE, Rate 250 g/ha): 0 | Plant response rating, Goosegrass ([3]; POSTEMERGENCE, Rate 125 g/ha): 0 | Plant response rating, Goosegrass ([3]; POSTEMERGENCE, Rate 250 g/ha): 0 | Plant response rating, Goosegrass ([3]; PREEMERGENCE, Rate 125 g/ha): 90 | Plant response rating, Goosegrass ([3]; PREEMERGENCE, Rate 250 g/ha): 100 | Plant response rating, Ann Bluegrass ([4]; POSTEMERGENCE, Rate 125 g/ha): 0 | Plant response rating, Ann Bluegrass ([4]; POSTEMERGENCE, Rate 250 g/ha): 0 | Plant response rating, Ann Bluegrass ([4]; PREEMERGENCE, Rate 125 g/ha): 0 | Plant response rating, Ann Bluegrass ([4]; PREEMERGENCE, Rate 250 g/ha): 0 | Plant response rating, S. Sandbur ([5]; POSTEMERGENCE, Rate 125 g/ha): 0 | Plant response rating, S. Sandbur ([5]; POSTEMERGENCE, Rate 250 g/ha): 0 | Plant response rating, S. Sandbur ([5]; PREEMERGENCE, Rate 125 g/ha): 0 | Plant response rating, S. Sandbur ([5]; PREEMERGENCE, Rate 250 g/ha): 0 | Plant response rating, Cmn Ragweed ([6]; POSTEMERGENCE, Rate 125 g/ha): 20 | Plant response rating, Cmn Ragweed ([6]; POSTEMERGENCE, Rate 250 g/ha): 60 | Plant response rating, Cmn Ragweed ([6]; PREEMERGENCE, Rate 125 g/ha): 20 | Plant response rating, Cmn Ragweed ([6]; PREEMERGENCE, Rate 250 g/ha): 40 | Plant response rating, Purple Nutsedge ([7]; POSTEMERGENCE): 0 | Plant response rating, Purple Nutsedge ([7]; PREEMERGENCE): 0 | Plant response rating, Smooth Crabgras ([8]; POSTEMERGENCE, Rate 125 g/ha): 0 | Plant response rating, Smooth Crabgras ([8]; POSTEMERGENCE, Rate 250 g/ha): 0 | Plant response rating, Smooth Crabgras ([8]; PREEMERGENCE, Rate 125 g/ha): 0 | Plant response rating, Smooth Crabgras ([8]; PREEMERGENCE, Rate 250 g/ha): 100 | Plant response rating, Cmn Purslane ([9]; POSTEMERGENCE, Rate 125 g/ha): 90 | Plant response rating, Cmn Purslane ([9]; POSTEMERGENCE, Rate 250 g/ha): 80 | Plant response rating, Cmn Purslane ([9]; PREEMERGENCE, Rate 125 g/ha): 0 | Plant response rating, Cmn Purslane ([9]; PREEMERGENCE, Rate 250 g/ha): 100 | Plant response rating, Brdlf Sgnlgrass ([10]; POSTEMERGENCE, Rate 125 g/ha): 0 | Plant response rating, Brdlf Sgnlgrass ([10]; POSTEMERGENCE, Rate 250 g/ha): 0 | Plant response rating, Brdlf Sgnlgrass ([10]; PREEMERGENCE, Rate 125 g/ha): 0 | Plant response rating, Brdlf Sgnlgrass ([10]; PREEMERGENCE, Rate 250 g/ha): 0 | Plant response rating, Yellow Nutsedge ([11]; POSTEMERGENCE): 0 | Plant response rating, Yellow Nutsedge ([11]; PREEMERGENCE): 0 | Plant response rating, Itchgrass ([12]; POSTEMERGENCE, Rate 125 g/ha): 0 | Plant response rating, Itchgrass ([12]; POSTEMERGENCE, Rate 250 g/ha): 0 | Plant response rating, Itchgrass ([12]; PREEMERGENCE, Rate 125 g/ha): 100 | Plant response rating, Itchgrass ([12]; PREEMERGENCE, Rate 250 g/ha): 40 | Plant response rating, Johnsongrass ([13]; POSTEMERGENCE, Rate 125 g/ha): 0 | Plant response rating, Johnsongrass ([13]; POSTEMERGENCE, Rate 250 g/ha): 0 | Plant response rating, Johnsongrass ([13]; PREEMERGENCE, Rate 125 g/ha): 0 | Plant response rating, Johnsongrass ([13]; PREEMERGENCE, Rate 250 g/ha): 0 | Plant response rating, Dallisgrass ([14]; POSTEMERGENCE, Rate 125 g/ha): 0 | Plant response rating, Dallisgrass ([14]; POSTEMERGENCE, Rate 250 g/ha): 0 | Plant response rating, Dallisgrass ([14]; PREEMERGENCE, Rate 125 g/ha): 80 | Plant response rating, Dallisgrass ([14]; PREEMERGENCE, Rate 250 g/ha): 90 | Plant response rating, Alfalfa Var. ([15]; POSTEMERGENCE, Rate 125 g/ha): 0 | Plant response rating, Alfalfa Var. ([15]; POSTEMERGENCE, Rate 250 g/ha): 70 | Plant response rating, Alfalfa Var. ([15]; PREEMERGENCE, Rate 125 g/ha): 0 | Plant response rating, Alfalfa Var. ([15]; PREEMERGENCE, Rate 250 g/ha): 0 | Plant response rating, Pit Morninglory ([16]; POSTEMERGENCE, Rate 125 g/ha): 0 | Plant response rating, Pit Morninglory ([16]; POSTEMERGENCE, Rate 250 g/ha): 70 | Plant response rating, Pit Morninglory ([16]; PREEMERGENCE, Rate 125 g/ha): 0 | Plant response rating, Pit Morninglory ([16]; PREEMERGENCE, Rate 250 g/ha): 30
